Tested on: LNCaP mutant AR-mediated transcription
Test: Luciferase transactivation assay in LNCaP cells transfected with ARR2-Luc
Conditions: 18 h
Protocol: Luciferase Transactivation Assay: Transcriptional activation assay is carried out as described previously by Kim et al., above, with minor modifications. […] The pRL-null (Promega) is used as the internal control. […] Luciferase activities are measured in triplicates by using dual luciferase assay system according to the manufacturer's instruction (Promega).
The bars represent the mean light units [counts per second (cps)/unit protein, i.e., relative luciferase activity] in triplicate wells from three separate experiments.

With `C[C@]12CC[C@H](O)CC1=CC[C@@H]1[C@@H]2CC[C@]2(C)C(n3cnc4ccccc43)=CC[C@@H]12` [Compound 5, 3β-Hydroxy-17-(1H-benzimidazol-1-yl)androsta-5,16-diene] the “effect on luciferase activity, compound alone” value (0.1 and 10.0 μM, without DHT) was “no effect” and the “effect on luciferase expression induced by 1.0 nM DHT” value (with 1.0 nM DHT) was “decreased in a concentration-dependent manner”.
